Test results reported in PMC12067444, “Synthesis and Pharmacological Characterization of Novel Peripheral Cannabinoid-1 Receptor Blockers Based on a Tricyclic Scaffold” (Journal of Medicinal Chemistry, 2025).
Where two headings read alike, the source gives them in different places.

What was measured:
mouse CB1R = molecular target: T1, mouse CB1R (Mus musculus, UniProt P47746); assay: Radioligand competition displacement binding, [3H]CP-55,940, mouse brain membranes
T1 construct: crude membranes from mouse brain; from tissue; host or cells: mouse brain cortex (without cerebellum) membranes, C57Bl/6Jhsd mice
Method: BNS compounds’ binding to CB1R and CB2R was assessed in competition displacement assays using [^3H]CP-55,940 as the radioligand and crude membranes from mouse brain or human cells overexpressing the CB1R or CB2R. All data were in triplicates with Ki values determined from three independent experiments. See SI for a detailed procedure.
Supplementary Experimental Methods
Brain membrane preparation for CB1R b i nd i ng . The mouse cortex, excluding the cerebellum, was dissected from 6-week-old C57Bl/6Jhsd mice (Harlan, Israel). The tissue was homogenized in 4 mL Buffer 1 (320 mM sucrose, 2 mM EDTA, 5 m M MgCl 2) using a glass-Teflon homogenizer and Hei-T ORQUE 200 (Heidolph; Cat# 17-012- 002- 25 -1) homogenizer set to 132 rpm. After homogenization, the mixture was centrifuged at 1,600 × g for 10 min at four °C, and the resulting supernatant was kept on ice. The pellet (P1) was discarded, and the remaining supernatant was subje cted to additional rounds of resuspension in 4 mL Buffer 1 followed by centrifugations, repeating this process three times. The pellets obtained from these centrifugations were discarded, and the three supernatant fractions were combined and subjected to higher-speed centrifugation at 39,000 × g for 15 min at f ou r °C. […] This resuspended pellet ( P 2 ) was incubated at 37 °C for 10 min and then centrifuged at 23, 000 × g for 10 min at 4°C.
After centrifugation, the pellet (P2) was resuspended in 5 mL Buffer 2 and further incubated at 30 °C for 40 min. Following this incubation, the suspension was centrifuged at 11,000 × g for 15 min at 4 °C. The pellet (P2) was resuspended in 2 mL Buffer 3 containing 50 mM TRIS HCl pH 7.4, 1 mM EDTA, and 3 mM MgCl 2. T h e protein concentration of the final suspension was determined using the BCA assay.
Subsequently, the suspension was diluted to a final concentration of 2 mg/mL in Buffer 3, aliquoted on ice, and stored at - 80 °C for further use.
CB1R and CB2R binding. Binding to the CB1R/CB2R was asse ss ed using competition displacement as says with [ 3H] CP -55,940 as the radioligand. Purified membranes from the mouse brain were utilized for CB1R assessment (as described above). Purified […]
membranes from cells overexpressing human CB2R ( Char les River CAT # A618) w e r e employed for CB2R evaluation.
For mouse CB1R binding assays, the novel compounds were dissolved in dimethyl sulfoxide (DMSO) to reach a final concentration of 10 mM. Each compound was then diluted in Buffer 3 (as described above) supplemented with 0.14% BSA, resulting in concentrations ranging from 10^-4 M to 10^-10 M. Triplicates of 100 µL of each concentration were dispensed into siliconized glass tubes. At the same time, 100 µL of Buffer 3 with 0.14% BSA was dispensed into three tubes as blanks. CB1R b r a i n membranes (20 µg) were added to each tube and diluted with 800 µL Buffer 3 with 0.14% BSA. Subsequently, 5 nM of [ 3H] CP -55,940 (100 µL) was added to each tube.
The tubes were sealed with parafilm and incubated with shaking (120 rpm) in a water bath at 30 °C for 1 hour. Following incubation, 2 mL of cold Buffer 4 (50 mM TRIS HCl pH 7.4, 1 mg/mL BSA) was added to each tube.
To harvest the content of each tube, a Brandel M-24R Vacuum Harvester was employed, with a wet WHATMAN GF/B filter paper (Fired) (one membrane for 12 tubes) placed in the harvester after being washed twice with Buffer 4. The filter membrane in the harvester absorbed the full content of each tube. Then, the filter membrane was wash ed six times with Buffer 4. Each filter -glass membrane tube wa s excised and transferred to a 20 mL glass tube co ntaining a 5 mL ULTIMA GOLD scintillation cocktail. […]

[1] = molecular target: hERG cardiac potassium channel (Homo sapiens, UniProt Q12809); assay: hERG automated patch clamp (SyncroPatch 384PE); assay type: cell-based; conditions: whole cell hERG currents
P-gp (MDR1-MDCKII cells) = P-gp (MDR1-MDCKII cells) (Homo sapiens, UniProt P08183); assay: Bidirectional permeability in MDR1-MDCKII cells with and without GF120918; conditions: for P-gp substrate: MDR1-MDCKII cells; for Rank Papp: MDR1-MDCKII permeability rank
Method: (§1) MDR1-MDCKII cells were seeded onto […] (PET) in a 96-well insert system. Test and reference compounds were administered to the apical (A-to-B) and basolateral (B-to-A) sides of the cell monolayer. Permeation of the compounds in both directions was assessed, with and without a P-glycoprotein (P-gp) inhibitor (GF120918). […] After a 2.5-h incubation period, each compound’s permeability and efflux ratio were calculated as described in the SI. […]
(§2) Bidirectional permeability assessment in MDR1-MDCK cells. Test and reference compounds were quantified using LC -MS/MS ana lysis based on th e peak ar ea r atio of analyte to internal standard (IS). T he apparent permeability coefficient (Papp) in cm/s was computed using the equation: Pa pp = (dCr/d t ) × V r / ( A × C 0), where dCr/ d t […]
(§3) represents the cumulative concentration of the compound in the receiver chamber over time (µM/s), Vr is the solution volume in the receiver chamber (0.075 mL on the apical side, 0.25 mL on the basolateral side), A is the surface area for transport (0.0804 cm2 f or the monolayer ar ea), and C0 is the initial concentration in the donor chamber ( µM) .
(§4) The efflux ratio was determined using the equation Efflux Ratio = P a pp ( B:
(§5) A ) / Pa pp (A: B) . […]
(§6) Additionally, the percent of lucifer yellow in the basolateral well was calculated using the equation:
(§7) Lucif er yellow = VV bbbbbbbbbbbbbbbbbbbb ×RR FFFF bbbbbbbbbbbbbbbbbbbb ×100 VV bbaaaaaa bbbb ×RRRRRR bbaaaaaa bbbb+VV bbbbbbbbbbbbbbbbbbbb ×RRFFFF bbbbbbbbbbbbbbbbbbbb wher e RFUApical and RFUBasolateral demote the r elative f luor escence unit values of lucif er yellow in the apical and basolateral wells, respectively, and VApical and VBasolateral represent the volumes of apical and basolateral wells (0.075 mL and 0.25 mL, r espectively) . T he % Lucif er Yellow should be less than 2, indicating minimal leakage. […]

P-gp (MDR1) = P-gp (MDR1) (Homo sapiens, UniProt P08183); assay: as above; conditions: dog; for Papp A→B at 2.5 h / Papp B→A at 2.5 h / efflux ratio at 2.5 h: MDCK-MDR1
Method: as §1, §2, §3, §4, §5, §6, §7

[2] = [3H]CP-55,940 displacement, mouse brain membranes, read-out: CB1R mKi
[3] = MDCK-MDR1, Mean recovery % A to B, without GF120918
[4] = MDCK-MDR1, Mean recovery % B to A, without GF120918

T1 sequence (P47746 whole entry): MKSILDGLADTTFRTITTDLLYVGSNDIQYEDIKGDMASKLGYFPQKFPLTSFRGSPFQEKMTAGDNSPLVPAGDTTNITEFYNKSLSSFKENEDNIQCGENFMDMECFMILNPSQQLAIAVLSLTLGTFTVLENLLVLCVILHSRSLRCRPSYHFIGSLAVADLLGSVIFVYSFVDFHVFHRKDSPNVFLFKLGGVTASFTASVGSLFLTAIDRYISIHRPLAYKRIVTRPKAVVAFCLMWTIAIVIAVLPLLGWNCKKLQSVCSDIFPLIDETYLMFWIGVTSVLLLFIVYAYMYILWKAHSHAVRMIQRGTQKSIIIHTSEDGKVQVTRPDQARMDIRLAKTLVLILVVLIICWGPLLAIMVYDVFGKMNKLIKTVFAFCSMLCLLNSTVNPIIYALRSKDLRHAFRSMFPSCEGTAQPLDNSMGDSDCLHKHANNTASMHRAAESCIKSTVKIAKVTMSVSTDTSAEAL
Sequence of hERG cardiac potassium channel (Q12809 whole entry): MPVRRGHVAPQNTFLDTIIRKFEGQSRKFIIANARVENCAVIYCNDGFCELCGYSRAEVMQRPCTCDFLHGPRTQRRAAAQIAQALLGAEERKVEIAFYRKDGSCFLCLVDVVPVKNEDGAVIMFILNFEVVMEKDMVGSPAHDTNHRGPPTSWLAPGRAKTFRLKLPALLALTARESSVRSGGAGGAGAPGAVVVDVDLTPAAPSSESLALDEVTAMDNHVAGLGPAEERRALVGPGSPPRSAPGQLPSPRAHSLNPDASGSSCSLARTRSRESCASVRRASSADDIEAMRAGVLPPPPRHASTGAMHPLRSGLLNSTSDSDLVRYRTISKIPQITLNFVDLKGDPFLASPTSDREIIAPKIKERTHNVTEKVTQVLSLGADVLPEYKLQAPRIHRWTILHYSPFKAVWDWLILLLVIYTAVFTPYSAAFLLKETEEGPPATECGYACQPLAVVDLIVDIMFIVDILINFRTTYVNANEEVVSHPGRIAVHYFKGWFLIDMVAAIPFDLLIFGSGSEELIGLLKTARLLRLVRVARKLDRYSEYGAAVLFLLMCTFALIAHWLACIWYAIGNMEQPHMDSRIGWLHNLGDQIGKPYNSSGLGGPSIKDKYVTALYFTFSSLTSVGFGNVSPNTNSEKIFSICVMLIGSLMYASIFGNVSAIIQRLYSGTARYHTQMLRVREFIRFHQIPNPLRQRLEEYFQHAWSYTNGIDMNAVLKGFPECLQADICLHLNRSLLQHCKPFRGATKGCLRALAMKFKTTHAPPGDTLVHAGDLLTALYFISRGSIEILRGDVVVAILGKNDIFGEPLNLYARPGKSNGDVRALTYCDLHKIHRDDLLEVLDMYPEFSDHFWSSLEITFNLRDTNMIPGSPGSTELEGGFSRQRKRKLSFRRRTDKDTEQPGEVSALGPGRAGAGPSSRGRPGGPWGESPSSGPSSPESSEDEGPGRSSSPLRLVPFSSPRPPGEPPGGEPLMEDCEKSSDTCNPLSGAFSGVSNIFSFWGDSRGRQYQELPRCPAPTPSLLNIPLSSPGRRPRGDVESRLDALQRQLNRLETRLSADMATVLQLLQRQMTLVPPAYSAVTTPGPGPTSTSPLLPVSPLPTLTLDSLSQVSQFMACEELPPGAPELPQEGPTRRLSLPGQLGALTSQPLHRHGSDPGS
Sequence of P-gp (MDR1) (P08183 whole entry): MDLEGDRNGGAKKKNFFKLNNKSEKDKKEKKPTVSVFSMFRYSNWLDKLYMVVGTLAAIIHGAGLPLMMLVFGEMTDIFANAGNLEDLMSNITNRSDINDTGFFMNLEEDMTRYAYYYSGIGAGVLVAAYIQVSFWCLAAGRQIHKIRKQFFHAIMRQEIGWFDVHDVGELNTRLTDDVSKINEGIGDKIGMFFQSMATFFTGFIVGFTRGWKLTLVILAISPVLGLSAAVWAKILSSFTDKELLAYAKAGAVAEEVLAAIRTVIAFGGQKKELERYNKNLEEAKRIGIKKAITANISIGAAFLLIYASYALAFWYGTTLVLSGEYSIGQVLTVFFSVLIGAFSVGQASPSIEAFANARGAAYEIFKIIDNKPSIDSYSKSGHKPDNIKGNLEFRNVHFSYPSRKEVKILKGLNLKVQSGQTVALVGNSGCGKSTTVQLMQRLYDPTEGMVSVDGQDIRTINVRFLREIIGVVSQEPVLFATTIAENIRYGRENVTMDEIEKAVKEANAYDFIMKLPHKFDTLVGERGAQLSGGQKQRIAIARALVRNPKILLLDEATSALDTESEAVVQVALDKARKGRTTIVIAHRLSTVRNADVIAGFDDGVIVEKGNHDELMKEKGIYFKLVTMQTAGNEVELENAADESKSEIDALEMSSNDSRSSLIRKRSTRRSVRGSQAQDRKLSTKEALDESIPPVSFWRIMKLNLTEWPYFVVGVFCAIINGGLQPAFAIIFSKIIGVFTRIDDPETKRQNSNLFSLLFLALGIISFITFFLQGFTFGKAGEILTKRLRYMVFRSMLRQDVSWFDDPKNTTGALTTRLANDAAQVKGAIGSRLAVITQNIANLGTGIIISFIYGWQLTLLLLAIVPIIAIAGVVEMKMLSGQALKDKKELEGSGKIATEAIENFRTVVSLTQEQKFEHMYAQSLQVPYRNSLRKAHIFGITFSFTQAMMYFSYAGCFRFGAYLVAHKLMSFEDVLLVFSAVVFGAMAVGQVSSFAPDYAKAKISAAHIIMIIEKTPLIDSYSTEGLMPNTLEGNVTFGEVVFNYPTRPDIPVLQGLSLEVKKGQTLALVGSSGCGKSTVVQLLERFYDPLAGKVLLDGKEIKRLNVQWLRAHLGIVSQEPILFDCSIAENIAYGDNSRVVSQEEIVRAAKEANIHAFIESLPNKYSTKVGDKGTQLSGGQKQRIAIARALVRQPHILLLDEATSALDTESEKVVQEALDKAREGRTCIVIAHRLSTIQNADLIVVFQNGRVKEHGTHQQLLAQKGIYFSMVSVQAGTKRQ
Sequence of P-gp (MDR1-MDCKII cells) (P08183 whole entry): as above

Structure (SMILES): Cc1ccc(S(=O)(=O)NC2CCCOc3c2nn(-c2ccccc2Cl)c3-c2ccc(Cl)cc2)cc1 (stereo not shown) [BNS807]
- Ki (mouse CB1R; [2]): 10 nM
- IC50 [1]: 18000 nM

Structure (SMILES): O=S(=O)(NC1CCCOc2c1nn(-c1ccccc1Cl)c2-c1ccc(Cl)cc1)c1ccc(Cl)cc1 (stereo not shown) [BNS808, 4-chloro-N-[2-(2-chlorophenyl)-3-(4-chlorophenyl)-5,6,7,8-tetrahydrooxepino[3,2-c]pyrazol-8-yl]benzenesulfonamide]
- Papp A:B (P-gp (MDR1-MDCKII cells); A to B, without GF120918): 0.26 ×10^–6 cm/s
- P-gp substrate (P-gp (MDR1-MDCKII cells)): P-gp substrate and P-gp substrates and yes
- Rank Papp (P-gp (MDR1-MDCKII cells)): Low
- Papp A→B at 2.5 h (P-gp (MDR1)): 0.26 ×10⁻⁶ cm/s
- Papp B→A at 2.5 h (P-gp (MDR1)): 1.01 ×10⁻⁶ cm/s
- efflux ratio at 2.5 h (P-gp (MDR1)): 3.95
- recovery at 2.5 h (P-gp (MDR1); MDCK-MDR1, Mean recovery % A to B, with GF120918): 7.87%
- recovery at 2.5 h (P-gp (MDR1); [3]): 7.9%
- recovery at 2.5 h (P-gp (MDR1); MDCK-MDR1, Mean recovery % B to A, with GF120918): 23.4%
- recovery at 2.5 h (P-gp (MDR1); [4]): 15.3%
- Ki (mouse CB1R): 0.7 nM
- IC50 [1]: 5390 nM

Structure (SMILES): CS(=O)(=O)N1CCC(C(=O)NC2CCCOc3c2nn(-c2ccccc2Cl)c3-c2ccc(Cl)cc2)CC1 (stereo not shown) [BNS815, N-[2-(2-Chlorophenyl)-3-(4-chlorophenyl)-5,6,7,8-tetrahydrooxepino[3,2-c]pyrazol-8-yl]-1-methylsulfonyl-piperidine-4-carboxamide]
- P-gp substrate (P-gp (MDR1-MDCKII cells)): yes
- Rank Papp (P-gp (MDR1-MDCKII cells)): Hi gh
- Papp A→B at 2.5 h (P-gp (MDR1)): 10.1 ×10⁻⁶ cm/s
- Papp B→A at 2.5 h (P-gp (MDR1)): 18.9 ×10⁻⁶ cm/s
- efflux ratio at 2.5 h (P-gp (MDR1)): 1.87
- recovery at 2.5 h (P-gp (MDR1); [3]): 75.2%
- recovery at 2.5 h (P-gp (MDR1); [4]): 76.1%
- recovery at 2.5 h (P-gp (MDR1); MDCK-MDR1, with GF120918 (concentration not stated), Mean recovery % A to B, with GF120918): 63.8%
- recovery at 2.5 h (P-gp (MDR1); MDCK-MDR1, with GF120918 (concentration not stated), Mean recovery % B to A, with GF120918): 77.6%
- Ki (mouse CB1R; [2]): 18 nM
- IC50 [1]: 4860 nM
